One assay relates to thymocytes. Kind of assay: Corticosteroid-induced apoptosis in mouse thymus. Format: in vivo. The procedure:
Thymic lymphocytes, or thymocytes, undergo a suicide process known as apoptosis or programmed cell death in response to various stimuli, including ionizing radiation, calcium ionophores, glucocorticoid hormones, and other agents. Apoptosis is also part of the normal physiological process of development and of lymphocyte (and other cell) selection.
Eight male B6D2F1 mice weighing approximately twenty-five grams were given a single injection of either palmitoyldeoxyguanosine (25 mg/kg, i.p.) in a Tween-DMSO vehicle (0.02% Tween and 7.5% DMSO in physiological saline) or vehicle alone. Forty-eight hours later these mice were given an i.p. injection of a long-acting corticosteroid, methylprednisolone acetate (Depo-Medrol; 250 mg/kg). Forty-eight hours following administration of the corticosteroid, all eight of these animals and four additional untreated animals (basals) were sacrificed by cervical dislocation, the thymuses and spleens removed and weighed, and thymic cell number and viability measured by established methods.

The test system of assay [1] is normal mouse bone marrow cells. Kind of assay: Proliferation of bone marrow cells in long-term culture. The class given is cell-based. Particulars: 10 micrograms per ml. The procedure:
Bone marrow cells from the femurs of B6D2F1 mice were used to establish long-term marrow cultures. After four weeks, when the stromal layer was confluent, the culture was treated with microphenolic acid in order to remove all cells from the stroma. New normal bone marrow cells (1×10^5/ml) from the same source were then used to “recharge” the stromal layer. Palmitoyldeoxyguanosine was added to half of the cultures at a concentration of 10 micrograms per ml. […] On days 4 and 7 cells from the culture were removed, washed, and replated in methylcellulose. The number of granulo-monocytic colonies was counted one week later.

The subject of another assay is female Balb/C mice. Briefly: Cecal ligation and puncture (CLP) polymicrobial sepsis survival. Particulars: 25 mg/kg i.p. daily 3 days prior to CLP. Format: in vivo, mouse. The procedure:
N^2,3′,5′-tripalmitoyldeoxyguanosine (PdG) stimulates neutrophil production. Since neutrophils are important in defense against bacteria, PdG was tested for beneficial effects in bacterial sepsis. Bacterial infection as a consequence of the immunocompromising effects of radiotherapy or chemotherapy is an important cause of mortality in cancer patients. The potential utility of PdG was evaluated in the cecal ligation and puncture model (CLP), a model of polymicrobial sepsis in which the cecum of an animal is tied off without otherwise obstructing intestinal flow, and then punctured to allow fecal matter trapped in the cecum to leak into the peritoneal cavity (O'Reilly, et al. Journal of Trauma, 33:679-682). This release causes peritonitis as well as subsequent bacteremia, shock, and mortality. The CLP model is a particularly rigorous challenge because it creates a severe and complex polymicrobial sepsis due to both Gram-negative and Gram-positive bacteria. The CLP model is analogous to a ruptured appendix or punctured intestine in humans.
36 female Balb/C mice were employed. The mice were randomly assigned to one of three groups of twelve mice each. Two groups were treated once per day for three days prior to CLP by i.p. injection with either 25 mg/kg PdG or with vehicle alone. One group underwent the CLP procedure but received no other treatment. Survival was monitored for 60 days after CLP.

For a further assay, the system named is interleukin-1-alpha. Kind of assay: LPS-induced elevation of serum interleukin-1-alpha. The class given is in vivo, mouse. The settings on record: PdG 25 mg/kg i.p. Here is the method:
Sixty-three female Balb/C mice were randomly assigned to one of three groups. The animals in one group received a single daily dose of N^2,3′,5′-tripalmitoyldeoxyguanosine (PdG) (25 mg/kg, i.p.), while a second group received a single daily dose of the PdG treatment vehicle (control). The third group was left untreated. On the fourth day 100 μg salmonella typhimurium LPS was administered to all three groups. Serum samples were taken just prior to LPS administration (t=0) and at two, four, six, eight, ten, twelve, sixteen, and twenty hours after LPS administration. The samples were then frozen until the time of assay. Serum levels of TNF-alpha, and IFN-gamma were measured by ELISA.
PdG also attenuated LPS-induced elevation of serum interleukin-1-alpha and interleukin-6.

The text below walks through data of patent US7307166B1, “Oxpurine nucleosides and their congeners, and acyl, derivatives thereof, for improvement of hematopoiesis” (Wellstat Therapeutics Corporation, priority 1987, dated 2007).

As to `CCCCCCCCCCCCCCCC(=O)Nc1nc2c(ncn2[C@H]2C[C@H](OC(=O)CCCCCCCCCCCCCCC)[C@@H](COC(=O)CCCCCCCCCCCCCCC)O2)c(=O)[nH]1` [PdG, 3′,5′-O-N^2-tripalmitoyl-2′-deoxyguanosine], in the assay on thymocytes (25 mg/kg i.p. 48 h before Depo-Medrol 250 mg/kg, 48 h after), the Cells/Thymus is on record as 64 ± 12 ×10^6. Besides, the “Spleen Wt.” value with thymocytes (25 mg/kg i.p. once, 48 h before Depo-Medrol 250 mg/kg, 48 h after corticosteroid) stood at 61 ± 11 mg. Moreover, the “% Viable” value in the assay with thymocytes (thymic cells, 25 mg/kg i.p. 48 h before Depo-Medrol 250 mg/kg, 48 h after) turned out to be 87 ± 3 %. Further, the Cells is recorded as 1.9 ± .13 10^6/flask in assay [1] (day 1), 2.9 ± .10 10^6/flask in assay [1] (day 3), 7.7 ± .2 10^6/flask in assay [1] (day 5) and 4.3 ± .15 10^6/flask in assay [1] (day 7). The CFU-GM/flask came out at 5123 ± 561 in assay [1] (day 4) and 33903 ± 9457 in assay [1] (day 7). The mice alive entry in the assay on female Balb/C mice (72 hours after CLP) is “All”. Further, the “animals surviving / total” value in the assay with female Balb/C mice (60 day observation period) was 10/12. For the same molecule, in the assay with female Balb/C mice (60 day observation period), the survival was 83%. Further, the “LPS-induced elevation of serum interleukin-1-alpha” value with interleukin-1-alpha was “attenuated”.
